Patent US20250186734A1, “METHODS AND SYSTEMS FOR AUTOMATED NEUR[…] TO EXTEND RELIEF OF TREATMENT-RESISTANT MENTAL DISORDERS” (UNIVERSITY OF PITTSBURGH-OF THE COMMONWEALTH SYSTEM OF …, priority 2022, published 2025)

Columns and labels:
[1] = tested on: patients with treatment-resistant depression; assay: Randomized controlled trial of ketamine infusion and automated self-association training (ASAT/NT): MADRS depression severity; type: in vivo, human
Source text: Participants. To achieve the initial recruitment target of n=150 patients, the study enrolled and randomized n=154 patients, continuing enrollment until a final sample was acquired that included the full target of n=150 patients who completed, at a minimum, (1) an infusion day, (2) a 24-hour assessment visit, and (3) ≥75% of intended Cognitive Training (active or sham NT) visits. All n=154 randomized patients were included in the reported intent-to-treat analyses. In particular, 154 adult (age 18-60) patients reporting moderate-to-severe levels of depression [Montgomery-Asberg Depression Rating Scale (MADRS; [Montgomery S A, Asberg M: A new depression scale designed to be sensitive to change. Br J Psychiatry. 1979; 134:382-9]) score 25], lower-than-normative self-reported self-esteem [i.e., scoring outside of 1SD from the normative mean on the Cognitive Triad Inventory [Beckham E E, Leber W R, Watkins J T, Boyer J L, Cook J B: Development of an instrument to measure Beck's cognitive triad: the Cognitive Triad Inventory. J Consult Clin Psychol. 1986; 54(4):566-7]“self” subscale [Anderson K W, Skidmore J R: Empirical analysis of factors in depressive cognition: the cognitive triad inventory. J Clin Psychol. 1995; 51(5):603-9; Possel P: Cognitive Triad Inventory (CTI): psychometric properties and factor structure of the German translation. J Behav Ther Exp Psychiatry. 2009; 40(2):240-7] and/or the Rosenberg Self-Esteem Scale], and at least one failed, adequate trial of an FDA-approved antidepressant medication in the current depressive episode (per Antidepressant Treatment Response Questionnaire; ATRQ [Chandler G M, losifescu DV, Pollack M H, Targum S D, Fava M: RESEARCH: Validation of the Massachusetts General Hospital Antidepressant Treatment History Questionnaire (ATRQ). CNS Neurosci Ther. 2010; 16(5):322-5]), were recruited and randomized. Any existing depression treatment regimens were required to be stably maintained beginning 4 weeks prior to screening and throughout the trial. See FIG. 10, Table S1 and Examples 6-8 below for sample characteristics.
Assessment Timeline. An experienced, Master's level clinical rater (CRS) administered the MADRS, the study's pre-specified primary endpoint throughout the acute (30-day) study period, to assess overall depression severity. The measure was repeated at screening (used for eligibility determinations only), pre-infusion baseline (infusion −1 hour; the clinical rater then left and was not present during any intervention procedure), infusion +24 hours (prior to the first session of active/sham NT), +5, +12, +21, and +30 days. […] This study also contemplates including and analyzing neurocognitive (e.g., neuroimaging; performance-based) assessments of ketamine's impact. Adequacy of both patient and rater blinding, for both infusion and NT allocation, was assessed by self-report using a 0-100 sliding scale (0=definitely placebo/sham; 50=1 don't know; 100=definitely ketamine/active) at infusion+30 days.
Interventions. A randomization table using permuted blocks of 3 or 6, stratified by (1) biological sex at birth and (2) modest vs. severe treatment resistance (severe=≥3 FDA-approved antidepressant trials in episode, per ATRQ), was generated by an independent statistical consultant at study start and maintained by the study pharmacist, who, at the point of randomization, conveyed the NT allocation (but not the infusion allocation) to a single study staff member who was assigned to that patient. This single staff member was tasked with opening the correct computer program to deliver the NT sessions to that patient, but was not involved in, nor present for, any outcome ratings. Blinding for all other study personnel was maintained until after the final patient's Day 30 assessment was complete.
Infusion. Participants were randomized 2:1 to ketamine (0.5 mg/kg over 40 min) or saline (50 ml 0.9% Sodium Chloride over 40 min) infusion. […]

[2] = tested on: patients with treatment-resistant depression; assay: Adverse event monitoring after infusion in the trial; type: in vivo, human; details: 0.5 mg/kg over 40 min infusion, monitoring for 4 hours post-infusion
Experimental: Infusion. Participants were randomized 2:1 to ketamine (0.5 mg/kg over 40 min) or saline (50 ml 0.9% Sodium Chloride over 40 min) infusion. All infusions were administered by blinded, licensed nurses in a medical hospital setting with a linked ACLS-certified team, with blinded study physician (RHH) oversight and safety/adverse event monitoring sustained for 4-hours post-infusion.

depressed patients = details: cited from earlier work
[3] = 24 hours post-infusion, ketamine vs saline

SMILES: CNC1(c2ccccc2Cl)CCCCC1=O (centres unmarked) [ketamine]
- remitter rate (MADRS≤9) ([1]; 24 hours post-infusion): 28%
- responder rate (≥50% decrease from pre-infusion MADRS baseline) ([1]; 24 hours post-infusion): 52%
- NNT for remission [1, 3]: 4.2
- number-needed-to-treat (NNT) for response [1, 3]: 3.7
- MADRS total depression score, group by time interaction, standardized β ([1]; infusion phase, pre-infusion to 24 hours post-infusion, ketamine 0.5 mg/kg over 40 min vs saline): −1.30
- duration of the rapid antidepressant effect of a single infusion extended by Cognitive Training ([1]; single ketamine infusion followed by 8 sessions of Cognitive Training): at least 30 days
- adverse events [2]: mild-to-moderate, time-limited
- response rates in depressed patients (depressed patients; as early as 2 hours post-ketamine): 55-80%
- time within which symptoms are dramatically reduced (depressed patients; intravenous ketamine): 2 to 24 h
- duration of improvements provided by a single infusion in isolation (depressed patients; prior published work): 1-2 week
- time after which effects of a single infusion dissipate (depressed patients; single infusion): 3 to 7 days
